Reference: patent US20090054403A1, “Treatment of Post-Traumatic Stress Disorder” (priority 2007, published 2009)

Assays:
[1] = tested on: heart rate, systolic blood pressure; test: Heart rate and tail cuff systolic blood pressure, 21 days daily treatment; format: in vivo, SHR; details: 1 and 10 mg/kg p.o. for 21 days
[2] = Tissue and plasma compound levels in beagle dogs, 10, 30, 60 mg/kg/day; format: in vivo
Experimental: Thirty-two male beagle dogs, weighing 10-12 kg, were randomly assigned to one of the following 4 treatment groups (n=8 per group): nepicastat at 0 mg/kg/day (placebo), 10 mg/kg/day (5 mg/kg b.i.d.), 30 mg/kg (15 mg/kg b.i.d.), or 60 mg/kg/day (30 mg/kg b.i.d.). Dog numbers 1-16 were assigned as dose group A and dog numbers 17-32 as dose group B. The terminal surgery for tissue harvest was performed over 2 days with 16 animals studied per day. Two or 3 days before the first compound administration each dog was weighed and skin regions overlying both cephalic, saphenous and jugular veins were shaved. Dosing consisted of oral administration of one capsule with the second given 8-10 hr later. Dogs were dosed as scheduled on days 1-3. On day 4, prior to the AM dose, 3 ml of blood were obtained from a jugular vein for determination of baseline plasma compound levels. […]
Ventricles were homogenized in 50 mM Tris-HCl, 5 mM Na2EDTA buffer (pH 7.4 at 4° C.) using a Polytron P-10 tissue disrupter (setting 10, 2×15 second bursts). […] Aquasol scintillation fluid was added to each vial and radioactivity determined by liquid scintillation counting. Saturation binding isotherms were analyzed after first converting total ligand concentrations to free ligand concentrations (total−bound=free). […]

[3] = tested on: acoustic startle reactivity; test: Acoustic startle reactivity on day ten of chronic dosing; details: day ten of b.i.d. oral dosing
Experimental: The effects of chronic dosing of nepicastat were examined. Between three and thirteen days prior to the first dosing day the rats were placed inside the startle apparatus and after a five minute acclimation period they were presented with a 118 dB noise burst on average once a minute (a variable inter-trial interval ranging between 30 and 90 seconds will be used) for 20 minutes. The startle responses were measured and a mean for the last twenty startle response was calculated for each rat.
Acoustic startle reactivity (a series of muscle contractions elicited by an intense burst of noise with a rapid onset), and pre-pulse inhibition (sensorimotor gating measured by analyzing any decrease in startle reactivity which occurs when a startling stimulus is immediately preceded by a non startling stimulus) were both measured in eight SR-Lab (San Diego Instruments, San Diego, Calif.) test stations. The rats were placed individually in a Plexiglas cylinder (10 cm diameter) which was housed in a ventilated sound-attenuating enclosure. Acoustic noise bursts (a broad band noise with a rise time and fall time of 1 msec) were presented via a speaker mounted 30 cm above the animal. Also, these speakers produced a 68 dB level of background noise throughout all test sessions. […] A decibel meter was used to calibrate the speakers in each of the eight test station to ±1% of the mean. Additionally, a SR-Lab calibrating instrument was used to calibrate each of the eight startle detection apparatuses to ±2% of the mean. Startle reactivity and pre-pulse inhibition tests were run concurrently immediately alter the motor activity test (about 4 hours and 40 minutes after the morning daily injection of nepicastat, and SKF-102698, and 10 minutes after a supplemental administration of clonidine and d-amphetamine on dosing day ten).

Row | Structure (SMILES) | heart rate and systolic blood pressure (tail cuff) [1] | dose proportionality of concentration in plasma (Day 4) and tissue and plasma (Day 5) ([2]; 10, 30, 60 mg/kg/day, exceptions kidney medulla, plasma day 4) | levels in all tissues examined relative to plasma ([2]; Day 5) | acoustic startle reactivity vs vehicle [3] | acoustic startle reactivity vs vehicle ([3]; listed as SKF102698)
1 | Cl.NCc1c[nH]c(=S)n1[C@H]1CCc2c(F)cc(F)cc2C1 [nepicastat, (S)-5-Aminomethyl-1-(5,7-difluoro-1,2,3,4-tetrahydronaphth-2-yl)-2,3-dihydro-2-thioxo-1H-imidazole hydrochloride] | did not alter heart rate, or systolic blood pressure | dose-proportional | higher than those in plasma | – | –
2 | Fc1cc(F)cc(Cn2cc[nH]c2=S)c1 [SKF 102698, reference compound] | – | – | – | significantly lower startle response compared to cyclodextrin | significantly reduced
